From patent US8722616B2, “Anti-HIV peptides and methods of use thereof” (priority 2009, dated 2014)
No end group written: not given here.

Tests used:
CEM-SS cells = assay: in vitro
Procedure: (§1) Anti-HIV cytopathic effect inhibition assays were conducted as described (Buckheit et al. (1995) Antimicrob. Agents Chemother., 39:2718-2727). In brief, serially diluted peptides were added to a 96-well round bottom microtiter plate in triplicate. CEM-SS cells at a concentration of 2.5×10^3 cells per well and HIV-1IIIB at the appropriate pre-determined titer were sequentially added to the microtiter plate. The cultures were incubated at 5% CO2/37° C. for six days. Following the incubation, the microtiter plates were stained with XTT tetrazolium dye to evaluate the efficacy and toxicity of the test compound(s).
as §1, with “Cytopathic Effect (CPE) Inhibition Assay: The CPE assay was performed” for “Anti-HIV cytopathic effect inhibition assays were conducted”, “as previously” for “as”, “Briefly,” for “In brief,”, “compound was” for “peptides were”

HIV-1IIIB = assay: microbe, parasite or virus in culture
Procedure: as §1
as §1, with “Cytopathic Effect (CPE) Inhibition Assay: The CPE assay was performed” for “Anti-HIV cytopathic effect inhibition assays were conducted”, “as previously” for “as”, “Briefly,” for “In brief,”, “compound was” for “peptides were”

[1] = Table 1, CEM-SS cells, HIV-1IIIB, six days, 50% inhibition of virus replication
[2] = read-out: TC50, Table 1, CEM-SS cells, six days, 50% reduction in cell viability
[3] = read-out: TC50, Table 3, CEM-SS cells
[4] = Table 2, sequence shuffling, CEM-S cells
[5] = read-out: TC50, Table 2, CEM-S cells

Substance | EC50 (HIV-1IIIB; [1]) [µM] | CC50 (CEM-SS cells; [2]) [µM] | further results
H-GFKDLLKGAAKALVKTVLF-NH2 [Ascaphin-8, reference compound] | – | – | CC50 (CEM-SS cells): 2.9 µM
RPKHPIKHQGLPQEVLNENLLRF [Isracidin, reference compound] | > 36.2 | > 36.2 | –
FFHHIFRGIVHVGKTIHRLVTG [Piscidin 1, reference compound] | – | 6.9 | –
GFGKAFHSVSNFAKKHKTA-NH2 [Styelin A, reference compound] [listing 1 of 2 here] | – | > 48.5 | –
NLVSGLIEARKYLEQLHRKLKNRKV [Peptide D88] [listing 1 of 2 here] | – | > 33.3 | –
GFGKAFHSVSNFAKKHKTA-NH2 [Styelin A, reference compound] [listing 2 of 2 here] | > 48.5 | – | –
INLKAIAALAKKLL [Mastoparan M, reference compound] | > 67.6 | > 67.6 | –
GAWKNFWSSLRKGFYDGEAGRAIRR [Peptide D94, reference compound] | > 34.1 | > 34.1 | –
ILGPVLGLVSDTLDDVLGIL [Maximin H5, reference compound] | – | – | EC50 (HIV-1IIIB; Table 3, CEM-SS cells): > 49.4 µM; CC50 (CEM-SS cells; [3]): > 49.4 µM
GKPRPYSPRPTSHPRPIRV [Drosocin, reference compound] | > 45.5 | > 45.5 | –
GLNTLKKVFQGLHEAIKLINNHVQ [Psuedin 1, reference compound] [listing 1 of 2 here] | – | > 36.8 | –
GLFDIIKKIAESW [Peptide B1] | – | – | EC50 (HIV-1IIIB; [4]): 11.7 µM; CC50 (CEM-SS cells; [5]): 37 µM
H-GLADFLNKAVGKVVDFVKS-NH2 [Desertcolin 1, reference compound] | – | – | EC50 (HIV-1IIIB; 1IIIB): > 49.9 µM; CC50 (CEM-SS cells): > 49.9 µM
GWFDIIKKIASEL [Peptide B4] | – | – | EC50 (HIV-1IIIB; 1IIIB): 10.7 µM; CC50 (CEM-SS cells): 38.9 µM
RQRVEELSKFSKKGAAARRRK [Misgurin, reference compound] | > 40 | > 40 | –
GLRSRIWLWVLLMIWQESNRFKRM [DRS S9r3] | – | – | EC50 (HIV-1IIIB; Table 3, CEM-SS cells): 1.25 µM; CC50 (CEM-SS cells; [3]): > 32.1 µM
GMASKAGAIAGKIAKVALKAL-NH2 [PGLa, reference compound] | > 50.8 | > 50.8 | –
LLKELWTKIKGAGKAVLGKIKGLL [Ponericin L2, reference compound] | 1.4 | 24.7 | –
H-GLLGLLGSVVSHVVPAIVGHF-NH2 [Maculatin 1.3, reference compound] | – | – | CC50 (CEM-SS cells): 8.02 µM

Substance | EC50 (HIV-1IIIB; [1]) [µM] | CC50 (CEM-SS cells; [2]) [µM] | further results
VDKPDYRPRPRPPNM [Metalnikowin I, reference compound] | > 54.4 | > 54.4 | –
GIFDKLAKEISIW [Peptide B5] | – | – | EC50 (HIV-1IIIB; [4]): > 65.8 µM; CC50 (CEM-SS cells; [5]): > 65.8 µM
GFLSILKKVLPKVMAHMK-NH2 [Melectin, reference compound] | – | 7.75 | –
GFLDIIEKIAKSW [Peptide B7] | – | – | EC50 (HIV-1IIIB; [4]): 10.5 µM; CC50 (CEM-SS cells; [5]): > 65.8 µM
SWKSMAKKLKEYMEKLKQRA [Latarcin 3a, reference compound] | – | – | EC50 (HIV-1IIIB; >100 μg/ml defined as HIV inactive): ~100 µg/mL
GWFDVVKHIAKRF-NH2 [Peptide D70] [listing 1 of 2 here] | 2.99 | – | –
ILGPVLGLVSRTLRRVLGIL [Maximin H5r3] | – | – | EC50 (HIV-1IIIB; Table 3, CEM-SS cells): 2.2 µM; CC50 (CEM-SS cells; [3]): 8.7 µM
GLRRLLGRLLRRLGRLLLR [GLR-19] | – | – | EC50 (HIV-1IIIB; Table 3, CEM-SS cells): 4.4 µM; CC50 (CEM-SS cells; [3]): 25.7 µM
HVDKKVADKVLLLKQLRIMRLLTRL [Spinigerin, reference compound] | – | – | toxicity to human cells at (CEM-SS cells): ≥ 25 µM; CC50 (CEM-SS cells; human, 6 days): > 33.3 µM
GIWSDLAEIIKKF [Peptide B6] | – | – | CC50 (CEM-SS cells; [5]): > 65.8 µM
GIWDTIKSMGKVFAGKILQNL-NH2 [Brevinin-2-related, reference compound] | – | – | CC50 (CEM-SS cells): 7.42 µM
GWFDVVKHIAKRF-NH2 [Peptide D70] [listing 2 of 2 here] | – | 10.6 | –
KGRGKQGGKVRAKAKTRSS [Parasin I, reference compound] | > 50 | > 50 | –
IKWKKLLRAAKRIL-NH2 [Peptide D74] | > 57.6 | 1.3 | –
GLNTLKKVFQGLHEAIKLINNHVQ [Psuedin 1, reference compound] [listing 2 of 2 here] | 35.7 | – | –
GLRSKIWLWVLLMIWQESNKFKKM [DRS S9, reference compound] | – | – | EC50 (HIV-1IIIB; Table 3, CEM-SS cells): 31.6 µM; CC50 (CEM-SS cells; [3]): > 32.9 µM
GNNRPVYIPQPRPPHPRI [Apidaecin IA, reference compound] | > 47.4 | > 47.4 | –
NLVSGLIEARKYLEQLHRKLKNRKV [Peptide D88] [listing 2 of 2 here] | > 33.3 | – | –
